Test [1] relates to Type 1 Phosphodiesterase. The test can be described thus: Phosphodiesterase (PDE) Inhibition, Type 1 Phosphodiesterase. It is filed as biochemical, bovine (coronary arteries). The settings on record: Type 1 PDE, at 10^-5 M; for % Inhibition of hydrolysis of 3H-cAMP: substrate 3H-cAMP 1.0 μM; for % Inhibition of hydrolysis of 3H-cGMP: substrate 3H-cGMP 1.0 μM. Summed up: (§1)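 PDEs isolated from bovine coronary artery by DEAE-cellulose chromatography, fractions typed by cAMP/cGMP hydrolysis ± calmodulin/CaCl2. Assay in 40 mM Tris-HCl (pH 8.0), 5 mM MgCl, 4 mM 2-mercaptoethanol with 1.0 μM ^3H-cyclic AMP or ^3H-cyclic GMP; final DMSO 1.25% (smooth muscle) or 2.5% (cardiac, platelet).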

Test [2] addresses T1, adenosine A1 receptor (Rattus norvegicus, UniProt P25099).
T1 construct: Whole brain minus cerebellum and brainstem from male Long Evans rats; from tissue; host or cells: whole brain minus cerebellum and brainstem, male Long Evans rats (membranes)
T1 sequence (P25099 1-326): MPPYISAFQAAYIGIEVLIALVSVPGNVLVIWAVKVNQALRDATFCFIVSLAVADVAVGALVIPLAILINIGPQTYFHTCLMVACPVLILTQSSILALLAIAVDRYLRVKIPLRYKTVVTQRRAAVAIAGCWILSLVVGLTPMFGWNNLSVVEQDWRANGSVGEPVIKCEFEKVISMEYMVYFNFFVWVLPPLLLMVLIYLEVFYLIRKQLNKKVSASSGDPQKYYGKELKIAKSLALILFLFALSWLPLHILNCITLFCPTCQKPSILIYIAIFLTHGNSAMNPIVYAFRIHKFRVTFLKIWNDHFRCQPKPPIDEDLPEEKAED
In words: Adenosine Receptor Binding - A1 Receptor Affinity (RBA1), [3H]-N6-cyclohexyladenosine displacement. The settings on record: [3H]-CHA 1.0 nM, rat brain membranes, 25° C., one hour; read-out: RBA-1, IC50 for adenosine A1 receptor affinity. Summed up: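 Rat forebrain membranes (whole brain minus cerebellum and brainstem, male Long Evans) washed in 0.05 M Tris-HCl pH 7.7, used at 20 mg/ml wet tissue. Bound [3H]-N6-cyclohexyladenosine measured by filtration and scintillation counting; Hill coefficient by log-plot regression, Bmax from Scatchard plot.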

The test system of test [3] is pentobarbital-anesthetized dog. In words: In Vivo Myocardial Inotropic Activity in Anesthetized Dog (CVAD). Further details: species or system dog (adult mongrel). The settings on record: for change in vivo at 0.1 mg/kg / change in vivo at 0.31 mg/kg / change in vivo at 1 mg/kg / change in vivo at 3.1 mg/kg / change in vivo at 10 mg/kg / change in vivo at 0.3 mg/kg: Canis lupus familiaris, iv; for change in vivo at 0.31 mg/kg: 0.31 mg/kg IV; for change in vivo at 1 mg/kg: 1.00 mg/kg IV; for change in vivo at 3.1 mg/kg: 3.10 mg/kg IV; for change in vivo at 10 mg/kg: 10.00 mg/kg IV; for change in vivo at 0.3 mg/kg: 0.30 mg/kg IV. Summed up: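 Adult mongrel dogs under pentobarbital anaesthesia (35 mg/kg IV, then 3.5 mg/kg/hour infusion), breathing spontaneously; increasing compound doses given IV via femoral vein, each over one minute. LV dP/dt max, heart rate (lead II ECG) and aortic pressure recorded by catheter transducers against ≥30 min control baseline; vehicle controls as needed.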

The test system of test [4] is Type 3 Phosphodiesterase. In words: Phosphodiesterase (PDE) Inhibition, Type 3 Phosphodiesterase. In kind it is biochemical, bovine (coronary arteries). The settings on record: Type 3 PDE, at 10^-5 M, substrate 3H-cAMP 1.0 μM. In outline: as §1
The mark [5] stands for this setting: 0.10 mg/kg IV, read-out: Percent Change Heart Rate.
[6] abbreviates: 0.10 mg/kg IV, read-out: Percent Change Myocardial Contractility.
[7] abbreviates: read-out: Percent Change Heart Rate.
The mark [8] stands for this setting: read-out: Percent Change Myocardial Contractility.
Setting [9] is: intravenously at about 0.01 to 0.31 mg/kg.
The mark [10] stands for this setting: 0.10 mg/kg IV, read-out: Percent Change Blood Pressure.
The mark [11] stands for this setting: read-out: Percent Change Blood Pressure.

Where two headings read alike, the source gives them in different places.

Broadly, the IC50 is the concentration that gives 50% inhibition. For the molecule `Cc1nn(C)c2c(=O)[nH]c(Cc3ccccc3)nc12` [Example 1, 1,3-Dimethyl-5-benzylpyrazolo[4,3-d]pyrimidine-7-one], in test [1], the “% Inhibition of hydrolysis of 3H-cAMP” value is recorded as 80% and the “% Inhibition of hydrolysis of 3H-cGMP” value stood at 71%. Besides, in test [2], the half-maximal inhibitory concentration (IC50) worked out at 13100 nM. The change in vivo at 0.1 mg/kg in test [3] (setting [5]) stood at 2%. Besides, the change in vivo at 0.1 mg/kg in test [3] (setting [6]) came to 8%. In test [3] (setting [7]), the change in vivo at 0.31 mg/kg was determined as 3%, the change in vivo at 1 mg/kg amounted to 6%, the change in vivo at 3.1 mg/kg came to 14% and the change in vivo at 10 mg/kg was determined as 38%. In addition, in test [3] (setting [8]), the change in vivo at 0.31 mg/kg came out at 12%, the change in vivo at 1 mg/kg amounted to 23%, the change in vivo at 3.1 mg/kg was 42% and the change in vivo at 10 mg/kg worked out at 95%. In test [3] (setting [9]), the “blood pressure (in words)” value is “a moderate reduction in blood pressure”, the “cardiac contractility (in words)” value is on record as “dose related significant increases in cardiac contractility” and the “heart rate (in words)” value is “only low or minimal changes in heart rate”. Moreover, the “% Inhibition of hydrolysis of 3H-cAMP” value in test [4] was 23%.
Regarding `CCn1nc(C)c2nc(-c3ccncc3)[nH]c(=O)c21` [Example 3, 1-Ethyl-3-methyl-5-(4-pyridyl)pyrazolo[4,3-d]pyrimidine-7-one], the “% Inhibition of hydrolysis of 3H-cAMP” value in test [1] worked out at 33%; in test [4], 55%. Also, the “% Inhibition of hydrolysis of 3H-cGMP” value in test [1] came out at 19%. Further, the IC50 in test [2] is 237 nM. Besides, the change in vivo at 0.1 mg/kg in test [3] (setting [10]) is 2%; in test [3] (setting [5]), 4%; in test [3] (setting [6]), 12%. In addition, the change in vivo at 0.3 mg/kg was 2% in test [3] (setting [11]), 7% in test [3] (setting [7]) and 20% in test [3] (setting [8]). For the same molecule, the change in vivo at 1 mg/kg in test [3] (setting [11]) is 2%; in test [3] (setting [7]), -1%; in test [3] (setting [8]), 47%. In addition, the change in vivo at 3.1 mg/kg in test [3] (setting [11]) came to 8%; in test [3] (setting [7]), 16%; in test [3] (setting [8]), 91%.
As to `CCn1nc(C)c2nc(-c3ccccc3)[nH]c(=O)c21` [Example 5, 1-Ethyl-3-methyl-5-phenylpyrazolo[4,3-d]pyrimidine-7-one], the “% Inhibition of hydrolysis of 3H-cAMP” value in test [1] stood at 29%; in test [4], 56%. The “% Inhibition of hydrolysis of 3H-cGMP” value in test [1] turned out to be 29%. The IC50 in test [2] came to 670 nM. Also, the results for the change in vivo at 0.1 mg/kg in test [3] (setting [10]), in test [3] (setting [5]) and in test [3] (setting [6]) were 2%, 7% and 10%, respectively. Besides, the change in vivo at 1 mg/kg in test [3] (setting [11]) is 1%; in test [3] (setting [7]) it was 43%; in test [3] (setting [8]), 77%. For the same molecule, the change in vivo at 3.1 mg/kg in test [3] (setting [11]) worked out at 1%; in test [3] (setting [7]) it was 50%; in test [3] (setting [8]) it was 100%.
For the molecule `Cc1nn(C)c2c(=O)[nH]c(-c3cccnc3)nc12` [Example 4, 1,3-Dimethyl-5-(3-pyridyl)pyrazolo[4,3-d]pyrimidine-7-one], in test [1], the “% Inhibition of hydrolysis of 3H-cAMP” value is on record as 6% and the “% Inhibition of hydrolysis of 3H-cGMP” value is listed as 4%. Further, the 50% inhibitory concentration (IC50) in test [2] was determined as 3090 nM. The “Percent Change Blood Pressure” value in test [3] (0.10 mg/kg IV) was 0/0. For the same molecule, the change in vivo at 0.1 mg/kg in test [3] (setting [5]) is 0%. Moreover, the change in vivo at 0.1 mg/kg in test [3] (setting [6]) was 2%. Further, in test [3] (setting [7]), the change in vivo at 0.31 mg/kg is 1%, the change in vivo at 1 mg/kg is 4% and the change in vivo at 3.1 mg/kg is 9%. In test [3] (setting [8]), the change in vivo at 0.31 mg/kg is 7%, the change in vivo at 1 mg/kg was determined as 27% and the change in vivo at 3.1 mg/kg amounted to 55%. Moreover, the “% Inhibition of hydrolysis of 3H-cAMP” value in test [4] worked out at 3%.

For the origin of these results see US4666908A, “5-Substituted pyrazolo[4,3-d]pyrimidine-7-ones and methods of use” (Warner-Lambert Company, priority 1985, dated 1987).
